This note sets out measurements from patent publication US10577373B2, “TYK2 inhibitors and uses thereof” (Nimbus Lakshmi, Inc., priority 2017, dated 2020).

In experiment [1] the test system is IL-12 induced STAT4 phophorylation mediated by Tyk2/JAK2 (heterodimeric complex). The experiment in a line: IL-12 Induced pSTAT4 in Human PBMC. Type of experiment: cell-based. The conditions noted are these: 1.7 ng/mL IL-12. An excerpt: The IL-12 Induced pSTAT4 assay evaluates the inhibition of IL-12 induced STAT4 phophorylation mediated by Tyk2/JAK2 (heterodimeric complex).

For experiment [2], the system named is GM-CSF induced STAT5 phosphorylation mediated by the JAK2/JAK2 homdimeric complex. The experiment in a line: GM-CSF Induced pSTAT5 in Human PBMC. The conditions noted are these: Homo sapiens, PBMC, 20 min, read-out: PBMC_GMCSF_pSTAT5 IC50, human PBMC; GM-CSF 5 ng/mL for 20 minutes; pSTAT5.
Source text: Human PBMC are isolated from buffy coat and are stored frozen for assays as needed.

Take `CNc1cc(Nc2cccn(-c3ncc(C)s3)c2=O)nc2c(C(=O)NC3CC3)cnn12` [I-261, N-cyclopropyl-7-(methylamino)-5-((1-(5-methylthiazol-2-yl)-2-oxo-1,2-dihydropyridin-3-yl)amino)pyrazolo[1,5-a]pyrimidine-3-carboxamide]: the values for the IC50 in experiment [1] and in experiment [2] were under 100 nM and over 2500 nM, respectively.

Turning to `CNc1cc(Nc2cccn(-c3ncc(C)s3)c2=O)nc2c(C(=O)N[C@H]3C[C@H]3F)cnn12` [I-262], the figures for the IC50 in experiment [1] and in experiment [2] were under 100 nM and over 2500 nM, respectively.

For `CNc1cc(Nc2cccn(-c3ncc(C)s3)c2=O)nc2c(C(=O)NC3CCC3)cnn12` [I-263], the values for the 50% inhibitory concentration (IC50) in experiment [1] and in experiment [2] were under 100 nM and over 2500 nM, respectively.

In the case of `CNc1cc(Nc2cccn(-c3ccc(OC)cn3)c2=O)nc2c(C(=O)N[C@H]3C[C@H]3F)cnn12` [I-265], the IC50 in experiment [1] is under 100 nM; in experiment [2], over 12500 nM.

Turning to `CNc1cc(Nc2cccn(-c3ccc(OC)cn3)c2=O)nc2c(C(=O)NC3CCC3)cnn12` [I-266], the IC50 in experiment [1] is under 100 nM; in experiment [2], over 12500 nM.

In the case of `CNc1cc(Nc2cccn(CCOC)c2=O)nc2c(C(=O)NC3CCC3)cnn12` [I-269], the IC50 in experiment [1] was under 100 nM; in experiment [2], over 50000 nM.

As to `CNc1cc(-c2cn(C(C)C)c3ncc(Cl)cc23)nc2c(C(N)=O)cnn12` [I-272, 5-(5-chloro-1-isopropyl-1H-pyrrolo[2,3-b]pyridin-3-yl)-7-(methylamino) pyrazolo[1,5-a]pyrimidine-3-carboxamide], the values for the IC50 in experiment [1] and in experiment [2] were under 100 nM and over 12500 nM, respectively.

Take `CNc1cc(Nc2cc(F)cnc2OC2CC2)nc2c(C(=O)NC3CC3)cnn12` [I-274]: the figures for the IC50 in experiment [1] and in experiment [2] were under 100 nM and over 12500 nM, respectively.

In the case of `CNc1cc(Nc2cc(F)cnc2OC2CC2)nc2c(C(=O)N[C@H]3C[C@H]3F)cnn12` [I-275], the IC50 is under 100 nM in experiment [1] and over 50000 nM in experiment [2].

On to `CNc1cc(Nc2cc(F)cnc2OC2CC2)nc2c(C(=O)NC3CCC3)cnn12` [I-276], for which the IC50 in experiment [1] was under 100 nM; in experiment [2], over 50000 nM.

Consider `CNc1cc(Nc2cc(C)cnc2OC2CC2)nc2c(C(=O)NC3CC3)cnn12` [I-277], for which the IC50 was 100 to 500 nM in experiment [1] and over 50000 nM in experiment [2].

Regarding `CNc1cc(Nc2cc(C)cnc2OCCOC)nc2c(C(=O)NC3CC3)cnn12` [I-281], the half-inhibitory concentration (IC50) in experiment [1] is 100 to 500 nM; in experiment [2] it was over 2500 nM.

`CNc1cc(Nc2cc(C)cnc2OCCOC)nc2c(C(=O)NC3CCC3)cnn12` [I-282]: the IC50 is 100 to 500 nM in experiment [1] and over 2500 nM in experiment [2].

For `CNc1cc(Nc2cc(F)cnc2OC)nc2c(C(=O)NCC(C)(C)CO)cnn12` [I-283], the results for the IC50 in experiment [1] and in experiment [2] were under 100 nM and over 50000 nM, respectively.

On to `[2H]C([2H])([2H])Oc1ncc(F)cc1Nc1cc(NC)n2ncc(C(=O)NC3CC3)c2n1` [I-284], for which the IC50 in experiment [1] was under 100 nM; in experiment [2], over 12500 nM.

As for `CNc1cc(Nc2cc(F)cnc2OCCOC)nc2c(C(=O)N[C@H]3C[C@H]3F)cnn12` [I-285], the values for the IC50 in experiment [1] and in experiment [2] were under 100 nM and over 50000 nM, respectively.

Turning to `[2H]C([2H])([2H])Oc1ncc(F)cc1Nc1cc(NC)n2ncc(C(=O)NC3CCC3)c2n1` [I-288], the results for the IC50 in experiment [1] and in experiment [2] were under 100 nM and over 2500 nM, respectively.

Take `CNc1cc(Nc2cc(F)cnc2OCCOC)nc2c(C(=O)NC3CCC3)cnn12` [I-290]: the IC50 was under 100 nM in experiment [1] and over 2500 nM in experiment [2].

`CNc1cc(Nc2cccn(-c3nc(C)c(C)s3)c2=O)nc2c(C(=O)N[C@H]3C[C@H]3F)cnn12` [I-292]: the half-maximal inhibitory concentration (IC50) was under 100 nM in experiment [1] and over 2500 nM in experiment [2].

As to `CNc1cc(Nc2cccn(-c3ccn(C)n3)c2=O)nc2c(C(=O)NC3CC3)cnn12` [I-294], the figures for the IC50 in experiment [1] and in experiment [2] were under 100 nM and over 12500 nM, respectively.

On to `CNc1cc(Nc2cccn(-c3cnn(C)c3)c2=O)nc2c(C(=O)NC3CC3)cnn12` [I-295], for which the figures for the 50% inhibitory concentration (IC50) in experiment [1] and in experiment [2] were under 100 nM and over 50000 nM, respectively.

Take `CNc1cc(Nc2cccn(-c3cnn(C)c3)c2=O)nc2c(C(=O)N[C@H]3C[C@H]3F)cnn12` [I-296]: the IC50 in experiment [1] is under 100 nM; in experiment [2] it was over 50000 nM.

Turning to `CNc1cc(Nc2cccn(-c3cncc(C)c3)c2=O)nc2c(C(=O)NC3CCC3)cnn12` [I-303], the values for the half-inhibitory concentration (IC50) in experiment [1] and in experiment [2] were under 100 nM and over 50000 nM, respectively.

As for `CNc1cc(Nc2cccn(C3CCCCC3)c2=O)nc2c(C(=O)N[C@H]3C[C@H]3F)cnn12` [I-305], the values for the IC50 in experiment [1] and in experiment [2] were under 100 nM and over 12500 nM, respectively.

`CNc1cc(Nc2cc(Cl)cn(-c3ccn(C)n3)c2=O)nc2c(C(=O)N[C@H]3C[C@H]3F)cnn12` [I-309]: the IC50 in experiment [1] was under 100 nM; in experiment [2] it was over 12500 nM.

Regarding `CNc1cc(Nc2cc(Cl)cn(-c3ccn(C)n3)c2=O)nc2c(C(=O)NC3CC3)cnn12` [I-310], the IC50 was under 100 nM in experiment [1] and over 2500 nM in experiment [2].

As to `CNc1cc(Nc2cc(Cl)cn(-c3cnn(C)c3)c2=O)nc2c(C(=O)NC3CC3)cnn12` [I-311], the figures for the IC50 in experiment [1] and in experiment [2] were under 100 nM and over 12500 nM, respectively.

In the case of `CNc1cc(Nc2cc(Cl)cn(-c3cnn(C)c3)c2=O)nc2c(C(=O)N[C@H]3C[C@H]3F)cnn12` [I-312], the IC50 in experiment [1] is under 100 nM; in experiment [2], over 12500 nM.

On to `CNc1cc(Nc2cc(Cl)cn(-c3cc(C)n(C)n3)c2=O)nc2c(C(=O)NC3CC3)cnn12` [I-314], for which the IC50 in experiment [1] is under 100 nM; in experiment [2] it was over 2500 nM.

With `CNc1cc(Nc2cc(Cl)cn(-c3cc(C)n(C)n3)c2=O)nc2c(C(=O)N[C@H]3C[C@H]3F)cnn12` [I-315], the IC50 in experiment [1] is under 100 nM; in experiment [2], over 12500 nM.

Regarding `CNc1cc(Nc2cc(Cl)cn(-c3ccnc(C)n3)c2=O)nc2c(C(=O)N[C@H]3C[C@H]3F)cnn12` [I-317], the IC50 in experiment [1] is under 100 nM; in experiment [2], over 2500 nM.

On to `CNc1cc(Nc2cc(Cl)cn(-c3cnc(C(=O)N(C)C)cn3)c2=O)nc2c(C(=O)NC3CC3)cnn12` [I-318], for which the values for the half-maximal inhibitory concentration (IC50) in experiment [1] and in experiment [2] were under 100 nM and over 2500 nM, respectively.

On to `CNc1cc(Nc2cc(Cl)cn(-c3cnc(C(=O)N(C)C)cn3)c2=O)nc2c(C(=O)N[C@H]3C[C@H]3F)cnn12` [I-319], for which the IC50 in experiment [1] is under 100 nM; in experiment [2], over 2500 nM.

Turning to `[2H]C([2H])([2H])Oc1ncccc1Nc1cc(NC)n2ncc(C(=O)N[C@H]3C[C@H](O)C3)c2n1` [I-321, N-((1r,3r)-3-hydroxycyclobutyl)-5-((2-(methoxy-d3)pyridin-3-yl)amino)-7-(methylamino)pyrazolo[1,5-a]pyrimidine-3-carboxamide], the IC50 was under 100 nM in experiment [1] and over 2500 nM in experiment [2].

`CNc1cc(Nc2cc(Cl)cn(-c3ncc(C)s3)c2=O)nc2c(C(=O)N[C@H]3C[C@H]3F)cnn12` [I-323]: the IC50 in experiment [1] is under 100 nM; in experiment [2] it was over 2500 nM.

Consider `CNc1cc(Nc2cc(Cl)cn(-c3cnn(C4CC4)c3C)c2=O)nc2c(C(=O)N[C@H]3C[C@H]3F)cnn12` [I-326], for which the IC50 is under 100 nM in experiment [1] and over 50000 nM in experiment [2].

Regarding `CNc1cc(Nc2cccn(C3CCOCC3)c2=O)nc2c(C(=O)NC3CC3)cnn12` [I-329], the values for the 50% inhibitory concentration (IC50) in experiment [1] and in experiment [2] were under 100 nM and over 2500 nM, respectively.

Turning to `CNc1cc(Nc2cccn(C3CCOCC3)c2=O)nc2c(C(=O)N[C@H]3C[C@H]3F)cnn12` [I-330], the values for the IC50 in experiment [1] and in experiment [2] were under 100 nM and over 2500 nM, respectively.

Take `CNc1cc(Nc2cc(Cl)cn(-c3ccn(C4CC4)n3)c2=O)nc2c(C(=O)NC3CC3)cnn12` [I-331]: the IC50 was under 100 nM in experiment [1] and over 12500 nM in experiment [2].

With `CNc1cc(Nc2cc(Cl)cn(-c3ccn(C4CC4)n3)c2=O)nc2c(C(=O)N[C@H]3C[C@H]3F)cnn12` [I-332], the values for the IC50 in experiment [1] and in experiment [2] were under 100 nM and over 2500 nM, respectively.

With `CNc1cc(Nc2cc(Cl)cn(-c3ccc(C4CC4)nn3)c2=O)nc2c(C(=O)NC3CC3)cnn12` [I-333], the IC50 in experiment [1] was under 100 nM; in experiment [2], over 12500 nM.

Turning to `CNc1cc(Nc2cc(Cl)cn(-c3ccc(C4CC4)nn3)c2=O)nc2c(C(=O)N[C@H]3C[C@H]3F)cnn12` [I-334], the IC50 in experiment [1] was under 100 nM; in experiment [2], over 50000 nM.

Take `CNc1cc(Nc2cccn(-c3cc(C)nn3C)c2=O)nc2c(C(=O)NC3CCC3)cnn12` [I-342]: the IC50 was under 100 nM in experiment [1] and over 12500 nM in experiment [2].

Regarding `CNc1cc(Nc2cccn([C@H]3CC[C@H](OC)CC3)c2=O)nc2c(C(=O)NC3CC3)cnn12` [I-343], the results for the IC50 in experiment [1] and in experiment [2] were under 100 nM and over 12500 nM, respectively.

As to `CNc1cc(Nc2cccn([C@H]3CC[C@H](OC)CC3)c2=O)nc2c(C(=O)N[C@H]3C[C@H]3F)cnn12` [I-344], the IC50 is under 100 nM in experiment [1] and over 12500 nM in experiment [2].

`CNc1cc(Nc2cccn([C@H]3CC[C@H](OC)CC3)c2=O)nc2c(C(=O)NC3CCC3)cnn12` [I-345]: the IC50 in experiment [1] was under 100 nM; in experiment [2], over 50000 nM.

Consider `CNc1cc(Nc2cccnc2OC)nc2c(C(=O)NCC(C)(C)CO)cnn12` [I-346], for which the IC50 in experiment [1] is under 100 nM; in experiment [2], over 2500 nM.

Consider `[2H]C([2H])([2H])Oc1ncccc1Nc1cc(NC)n2ncc(C(=O)NCC(C)(C)CO)c2n1` [I-347], for which the IC50 was under 100 nM in experiment [1] and over 50000 nM in experiment [2].

On to `CNc1cc(Nc2cccnc2OC2CC2)nc2c(C(=O)NCC(C)(C)CO)cnn12` [I-350], for which the IC50 in experiment [1] was under 100 nM; in experiment [2], over 50000 nM.

Consider `CNc1cc(Nc2cccn([C@H]3CCCOC3)c2=O)nc2c(C(=O)NC3CC3)cnn12` [I-352], for which the IC50 is under 100 nM in experiment [1] and over 50000 nM in experiment [2].

In the case of `CNc1cc(Nc2cccn([C@H]3CCCOC3)c2=O)nc2c(C(=O)NC3CCC3)cnn12` [I-354], the results for the IC50 in experiment [1] and in experiment [2] were under 100 nM and over 2500 nM, respectively.

As for `CNc1cc(Nc2cccn([C@H]3CC[C@@H](OC)CC3)c2=O)nc2c(C(=O)N[C@H]3C[C@H]3F)cnn12` [I-357], the IC50 was under 100 nM in experiment [1] and over 2500 nM in experiment [2].
